We go through one molecule from patent US10858364B2, “Imidazopyrazine inhibitors of Bruton's tyrosine kinase” (Acerta Pharma B.V., priority 2016, dated 2020).

The target in one series is MEK5 (Homo sapiens (Human), UniProt Q13163). Briefly: DiscoveRx Kd dose response, MEK5. It counts as binding. The protocol: (§1) Kinase profiling was performed with M27 was done at DiscoveRx at a single dose of 1 μM on all available kinases (KINOMEscan). The overall kinase selectivity score is in Table 6. […] Kinases inhibited >65% at 1 μM for M27 were followed up with a dose response at DiscoveRx. The M27 had IC50 values <1 μM for almost the same set of kinases with exception of TXK, but with additional inhibition of BRK (PTK6).
Sequence of MEK5 (Q13163 whole entry): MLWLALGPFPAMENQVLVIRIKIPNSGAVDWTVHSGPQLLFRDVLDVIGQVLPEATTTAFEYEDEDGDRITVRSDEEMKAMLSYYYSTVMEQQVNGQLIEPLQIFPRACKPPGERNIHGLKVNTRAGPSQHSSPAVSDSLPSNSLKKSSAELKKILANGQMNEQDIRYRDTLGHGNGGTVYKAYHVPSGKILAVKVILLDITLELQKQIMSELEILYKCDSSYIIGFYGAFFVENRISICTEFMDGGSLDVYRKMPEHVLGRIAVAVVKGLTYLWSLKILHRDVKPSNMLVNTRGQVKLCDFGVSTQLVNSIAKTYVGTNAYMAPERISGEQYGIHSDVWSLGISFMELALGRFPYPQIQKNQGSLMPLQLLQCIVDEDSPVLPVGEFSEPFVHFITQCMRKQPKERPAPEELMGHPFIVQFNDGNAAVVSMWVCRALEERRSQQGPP

The next series addresses CYP1A2 (Homo sapiens (Human), UniProt P05177).
Another series has as its target CYP2D6 (Homo sapiens (Human), UniProt P10635). Briefly: CYP inhibition, CYP2D6. Type of series: in vitro ADME.
A further series deals with BTK wild type (BTK-WT) (Homo sapiens (Human), UniProt Q06187). Briefly: BTK-WT LanthaScreen, inhibition constants from IC50 over time. Type of series: binding. How it is done: Inhibitory activity on BTK wild type (BTK-WT) and BTK Cys481Ser mutant (BTK-C481S) was measured using the LanthaScreen assay technology from ThermoFisher according to manufacturer's protocol. BTK-WT or BTK-C481 S (Genscript) were mixed and diluted with Eu-anti-GST antibody (Invitrogen) in Kinase buffer (50 mM Hepes pH 7.5+10 mM MgCl2+1 mM EGTA+0.01% Brij-35) to 15 and 6 nM, respectively. Final concentration in the assay for enzyme and antibody are 5 and 2 nM, respectively. Tracer (Kinase Tracer 236, Invitrogen) is diluted in Kinase buffer to 90 nM. Final concentration in the assay is 30 nM. Serial dilutions log 10 from 1 mM to 3.16 nM of test compounds are made in 100% DMSO. The dilutions in DMSO are then diluted 33-fold in Kinase buffer (50 mM Hepes pH 7.5+10 mM MgCl2+1 mM EGTA+0.01% Brij-35). The assay is performed as follows: 5 μL/well of BTK-WT or BTK-C481S enzyme and EU-anti-GST antibody dilution is mixed with 5 μL/well tracer dilution and 5 μL/well of compound dilution in Kinase buffer. Final compound concentration in the assay ranged from 10 μM to 0.316 nM, with 1% DMSO final concentration in assay. Mixture was incubated at room temperature in the dark and at different times of incubation (5 min, 10 min, 20 min, 30 min, 40 min, 60 min, 90 min, 120 min, 180 min and 300 min) the TR-FRET signal was read at 615 nm and 665 nm. The ratio 665/615 was used to calculate values expressed as percentage of the difference in readout (S/N) of the controls with and without Tracer. IC50 values for each timepoint were determined by curve fitting of the experimental results in Dotmatics. […] The kinetics in covalent binding are determined by affinity of the compound to BTK and by the reactivity of the electrophile. Using the data for M27 from the LanthaScreen assay on BTK-WT, the inhibition constants can be calculated for the parent and the metabolite. […] The Ki and kinact parameters were derived from IC50 values over time, according to the method of Krippendorff et al (J Biomol Screen. 2009, 14(8):913-23) with measured Km=102 nM for the tracer used in the assay.
Sequence of BTK wild type (BTK-WT) (Q06187 whole entry): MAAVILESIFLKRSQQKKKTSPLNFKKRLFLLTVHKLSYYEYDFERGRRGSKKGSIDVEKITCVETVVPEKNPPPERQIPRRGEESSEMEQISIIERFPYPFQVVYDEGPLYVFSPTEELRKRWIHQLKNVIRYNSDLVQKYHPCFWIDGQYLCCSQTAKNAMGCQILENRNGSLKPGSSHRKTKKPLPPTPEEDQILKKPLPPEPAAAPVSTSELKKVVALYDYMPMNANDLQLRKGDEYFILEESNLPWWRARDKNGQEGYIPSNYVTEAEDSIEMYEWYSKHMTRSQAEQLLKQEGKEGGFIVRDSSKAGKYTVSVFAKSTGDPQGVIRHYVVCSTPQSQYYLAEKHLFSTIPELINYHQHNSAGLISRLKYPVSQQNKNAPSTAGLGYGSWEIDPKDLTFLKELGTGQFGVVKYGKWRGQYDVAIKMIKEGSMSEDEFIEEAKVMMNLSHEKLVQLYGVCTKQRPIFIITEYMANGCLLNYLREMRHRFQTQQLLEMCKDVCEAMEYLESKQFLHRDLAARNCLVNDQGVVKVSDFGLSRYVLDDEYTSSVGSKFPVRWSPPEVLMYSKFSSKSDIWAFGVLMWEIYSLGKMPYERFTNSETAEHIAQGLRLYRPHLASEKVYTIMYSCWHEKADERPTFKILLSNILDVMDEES
(In general: Time-resolved FRET reads energy transfer from a long-lived donor to a nearby acceptor.)

The target of another series is ERBB4 (Homo sapiens (Human), UniProt Q15303). Briefly: DiscoveRx Kd dose response, ERBB4. It counts as binding. How it is done:
as §1

The target of the next series is BTK (Homo sapiens (Human), UniProt Q06187). Briefly: BTK IMAP with ATP competition and variable pre-incubation. Type of series: biochemical. How it is done:
BTK enzyme activity with ATP competition was measured using the IMAP (immobilized metal ion affinity-based fluorescence polarization) assay. BTK enzyme (Millipore) was diluted to 16 nM, respectively in Kinase Reaction (KR) buffer (10 mM Tris-HCl, 10 mM MgCl2, 0.01% Tween-20, 0.1% NaN3, 1 mM DTT, 2 mM MnCl2, pH 7.5). Serial dilutions […] from 1 mM to 31.6 nM of test compounds were made in 100% DMSO. The dilutions in DMSO were then diluted 25-fold in KR-buffer. Final compound concentrations ranged from 10 μM to 0.316 nM. The assay is performed as follows: 5 μL/well of test compound in KR buffer (final DMSO concentration in the assay is 1%) was mixed with 5 µl/well of BTK or ITK enzyme (final concentration in the assay was 4 and 8 nM for BTK and ITK, respectively). Test compounds and kinase enzyme were pre-incubated 0, 30, or 60 min, before adding 5 μL/well of 200 nM Fluorescein labeled substrate peptide (Blk/Lyntide substrate, Molecular Devices) in KR-buffer. Final peptide substrate concentration in assay was 50 nM. The kinase assay was started by adding 5 μL/well of 20, 100, or 400 μM ATP in KR-buffer (final ATP concentration was 5, 25, or 100 μM ATP). Following incubation for 2h at room temperature the enzyme reaction was stopped by adding 40 μL/well IMAP Progressive Binding Solution (Molecular Devices), according to product instructions, using 60% lx buffer A and 40% lx buffer B with 800× diluted beads). After 60 min incubation at room temperature in the dark the FP signal was read. Fluorescence at 535 nm was measured using parallel and perpendicular filters to determine differences in rotation due to binding of the phosphorylated substrate peptide to the beads. Values were calculated as percentage of the difference in readout (AmPi) of the controls with and without ATP. IC50 values were determined by curve fitting of the experimental results using Dotmatics. […] M27 was tested in the BTK IMAP ATP competition assays with variable pre-incubation times (0, 30, and 60 minutes) and ATP concentrations (5, 25 and 100 μM). The results in Table 2 and FIG. 2 confirm that M27 is covalent inhibitors of BTK. […] Furthermore, there is loss of ATP competition following pre-incubation of BTK with M27, a result that is typical for compounds that bind covalently.

Sequence of BTK (Q06187 whole entry): as above
Sequence of CYP1A2 (P05177 whole entry): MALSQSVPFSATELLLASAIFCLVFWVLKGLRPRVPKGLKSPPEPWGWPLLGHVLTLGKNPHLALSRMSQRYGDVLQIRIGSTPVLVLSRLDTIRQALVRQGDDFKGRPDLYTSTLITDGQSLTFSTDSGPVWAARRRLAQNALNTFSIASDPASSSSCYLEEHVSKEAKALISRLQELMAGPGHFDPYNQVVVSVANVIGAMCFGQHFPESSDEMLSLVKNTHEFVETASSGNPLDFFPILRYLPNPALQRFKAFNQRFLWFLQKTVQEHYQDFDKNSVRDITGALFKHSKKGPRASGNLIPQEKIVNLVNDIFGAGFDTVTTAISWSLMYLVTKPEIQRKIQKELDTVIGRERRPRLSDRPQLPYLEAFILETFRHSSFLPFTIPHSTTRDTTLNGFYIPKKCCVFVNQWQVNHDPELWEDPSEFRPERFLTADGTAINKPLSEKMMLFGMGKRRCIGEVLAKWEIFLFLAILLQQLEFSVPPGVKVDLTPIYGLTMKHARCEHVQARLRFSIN
Sequence of ERBB4 (Q15303 26-1308): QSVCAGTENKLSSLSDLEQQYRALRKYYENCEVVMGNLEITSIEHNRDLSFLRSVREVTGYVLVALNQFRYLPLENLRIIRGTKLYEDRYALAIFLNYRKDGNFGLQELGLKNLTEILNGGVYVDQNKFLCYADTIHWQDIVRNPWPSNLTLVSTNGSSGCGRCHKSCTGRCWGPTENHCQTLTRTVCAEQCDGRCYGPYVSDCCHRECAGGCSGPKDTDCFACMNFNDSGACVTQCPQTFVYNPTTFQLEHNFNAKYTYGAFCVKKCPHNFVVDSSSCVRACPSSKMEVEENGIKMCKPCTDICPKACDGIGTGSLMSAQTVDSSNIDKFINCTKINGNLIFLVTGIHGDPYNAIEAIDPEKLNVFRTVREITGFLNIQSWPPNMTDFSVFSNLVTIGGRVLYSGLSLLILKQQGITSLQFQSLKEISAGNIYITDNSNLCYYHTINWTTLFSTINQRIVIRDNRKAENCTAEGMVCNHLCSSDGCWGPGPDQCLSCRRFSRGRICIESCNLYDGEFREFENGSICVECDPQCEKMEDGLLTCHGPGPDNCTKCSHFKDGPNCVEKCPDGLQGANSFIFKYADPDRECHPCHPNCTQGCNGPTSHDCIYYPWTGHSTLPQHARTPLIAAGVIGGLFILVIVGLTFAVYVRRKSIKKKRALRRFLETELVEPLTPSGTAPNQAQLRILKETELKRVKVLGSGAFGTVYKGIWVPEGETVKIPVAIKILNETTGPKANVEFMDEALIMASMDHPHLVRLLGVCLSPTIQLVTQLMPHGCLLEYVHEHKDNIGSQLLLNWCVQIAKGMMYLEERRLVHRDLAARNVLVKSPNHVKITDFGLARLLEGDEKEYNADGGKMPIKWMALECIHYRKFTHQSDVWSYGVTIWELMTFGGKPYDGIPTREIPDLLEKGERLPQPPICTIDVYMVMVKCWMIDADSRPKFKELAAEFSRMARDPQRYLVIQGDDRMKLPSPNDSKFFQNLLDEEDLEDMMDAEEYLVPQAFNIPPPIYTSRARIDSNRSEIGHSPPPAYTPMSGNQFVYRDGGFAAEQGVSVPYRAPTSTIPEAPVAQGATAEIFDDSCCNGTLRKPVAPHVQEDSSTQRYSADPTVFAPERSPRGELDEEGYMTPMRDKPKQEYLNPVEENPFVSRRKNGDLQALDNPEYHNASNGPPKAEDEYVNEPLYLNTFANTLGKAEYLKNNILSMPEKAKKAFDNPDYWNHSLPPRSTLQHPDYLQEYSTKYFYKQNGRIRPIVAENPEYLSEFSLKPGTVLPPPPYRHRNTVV
Sequence of CYP2D6 (P10635 whole entry): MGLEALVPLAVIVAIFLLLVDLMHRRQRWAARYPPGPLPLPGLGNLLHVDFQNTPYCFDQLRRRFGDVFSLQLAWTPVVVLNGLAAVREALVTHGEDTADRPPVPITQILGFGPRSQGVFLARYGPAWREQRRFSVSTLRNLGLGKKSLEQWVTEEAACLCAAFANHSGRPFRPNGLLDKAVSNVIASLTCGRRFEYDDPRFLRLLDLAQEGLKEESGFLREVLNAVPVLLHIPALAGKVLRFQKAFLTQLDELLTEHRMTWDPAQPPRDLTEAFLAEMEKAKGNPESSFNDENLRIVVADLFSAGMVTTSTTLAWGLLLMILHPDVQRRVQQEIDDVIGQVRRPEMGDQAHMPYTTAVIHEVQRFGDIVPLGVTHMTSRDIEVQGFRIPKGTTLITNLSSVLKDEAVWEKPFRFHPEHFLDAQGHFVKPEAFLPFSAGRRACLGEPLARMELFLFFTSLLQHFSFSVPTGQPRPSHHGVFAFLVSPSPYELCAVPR

Turning to `CC#CC(=O)NCCCC(=O)c1nc(-c2ccc(C(=O)Nc3ccccn3)cc2)c2c(N)nccn12` [Formula (I), 4-(8-amino-3-(4-(but-2-ynamido)butanoyl)imidazo[1,5-a]pyrazin-1-yl)-N-(pyridin-2-yl)benzamide], the Kd (as a rule, the constant that tells how readily two partners part at equilibrium) came to 69 nM on MEK5 and 970 nM on ERBB4. Besides, the CYP1A2 inhibition entry at CYP1A2 was “does not inhibit”. In addition, the CYP2D6 inhibition entry on CYP2D6 is recorded as “does not inhibit”. In addition, on BTK wild type (BTK-WT), the kinact/KI (in general, the maximal inactivation rate divided by the concentration that gives half of it) was determined as 16500 M⁻¹ s⁻¹. Further, the kinact (commonly the maximal first-order rate at which the target is inactivated) at BTK wild type (BTK-WT) (derived from IC50 values over time (Krippendorff method)) is 0.0031 ± 0.0003 s⁻¹. Moreover, on BTK wild type (BTK-WT) (derived from IC50 values over time (Krippendorff method), tracer Km=102 nM), the affinity, expressed as Ki, was 188 ± 9 nM. The IC50 (in general, the concentration that inhibits the measured activity by half) on BTK (5 μM ATP, 0 minute pre-incubation) was 27.3 nM; at BTK (5 μM ATP, 30 minutes pre-incubation) it was 12.6 nM; at BTK (5 μM ATP, 60 minutes pre-incubation) it was 6.9 nM; on BTK (25 μM ATP, 0 minute pre-incubation) it was 72.4 nM; on BTK (25 μM ATP, 30 minutes pre-incubation), 18.1 nM; at BTK (25 μM ATP, 60 minutes pre-incubation) it was 9.5 nM. In addition, the IC50 on BTK (100 μM ATP, 0 minute pre-incubation) was 101 nM; on BTK (100 μM ATP, 30 minutes pre-incubation), 23.7 nM; on BTK (100 μM ATP, 60 minutes pre-incubation), 10.8 nM.
